# Laboratory results taken from paper PMC10622577, “Structural basis for stabilisation of the RAD51 nucleoprotein filament by BRCA2” (Nature Communications, 2023).
# Columns and labels:
# [1] = tested on: RAD51 nucleoprotein filaments; conditions: cited from earlier work
# RAD51 D184A NPFs = experiment: EMSA of TR2 titration on RAD51 D184A NPFs; format: binding, human
# Protocol: (§1) To assess RAD51 nucleoprotein (NPF) formation, wild-type and mutant RAD51 proteins were incubated with DNA in buffer: 25 mM HEPES pH 7.5, 150 mM NaCl, 2 mM DTT, 2 mM ATP, 5 mM CaCl2 for 15 minutes at room temperature. For filament binding of the TR2 peptide or His6-MBP-TR2 protein, the RAD51 NPFs were incubated with TR2 for further 5 minutes at room temperature. For filament binding of BRC4, the BRC4 peptide was pre-mixed with RAD51 for 10 minutes at room temperature before addition of DNA. For experiments with mono-streptavidin (mSA)-capped DNA, mSA (Sigma) was added in 5× molar excess of biotin labels for 15 minutes at room temperature prior to the addition of RAD51. Concentrations are provided in figures and DNA sequences for each experiment are reported in Supplementary Table 1.
# (§2) Before electrophoresis, samples were mixed with a 0.5:1 volume of 50% (w/v) sucrose solution and analysed on a pre-run 0.5% (w/v) agarose gel in 0.5× TB buffer at 35 V for 2.5 hours at 4 °C. DNA was visualised by excitation of the fluorescent tag or, in the case of unlabelled DNA, by SYBR Gold staining. Gels were imaged in a Typhoon FLA9000 by excitation at 473 nm for fluorescein-labelled DNA or SYBR Gold-stained gels, 532 nm excitation for Cy3-labelled DNA or 635 nm excitation for Cy5-labelled DNA.
# (§3) Supplementary table 1. DNA oligos and peptides
# (§4) Oligos Size (nt) Sequence (5’ – 3’)
# (§5) D184A […] (forward), […]
# [2] = tested on: RAD51 NPFs on DNA capped at both ends with mSA; experiment: EMSA of TR2 binding to RAD51 NPFs on mSA-capped DNA; design: species or system human; conditions: doubly-biotinylated ss- and dsDNA, mSA in 5× molar excess of biotin labels; SYBR Gold; two independent repeats
# Excerpt: (§6) To understand the structural basis for the association of the BRCA2 C-terminus with the RAD51 nucleoprotein filament, we sought to determine the structure of a RAD51-DNA-TR2 filament by high-resolution cryo-electron microscopy (cryoEM). […] Individual filaments within a bundle appeared to be in translational register relative to each other as it was possible to obtain well-resolved 2D classes of filament pairs (Supplementary fig. 5A, Supplementary Table 1). Filament aggregation induced by TR2 complicated picking of individual filament particles and prevented structural determination by cryoEM. We therefore sought to develop a method to prepare RAD51 NPFs in the presence of TR2 peptide without causing filament bundling. We reasoned that bundling might be alleviated by capping the DNA substrate with a bulky tag, to prevent filament aggregation by steric interference. We therefore prepared ss- and dsDNA substrates with a biotin tag at either one end or both ends, that could be bound by monomeric streptavidin (mSA) (Supplementary Fig. 5B, Supplementary Table 1).
# Fig. 2 BRCA2 TR2 induces bundling of RAD51 nucleoprotein filaments. […]
# Before electrophoresis, samples were mixed with a 0.5:1 volume of 50% (w/v) sucrose solution and analysed on a pre-run 0.5% (w/v) agarose gel in 0.5× TB buffer at 35 V for 2.5 hours at 4 °C. […]
# wild-type RAD51 NPFs = experiment: EMSA of TR2 titration on wild-type RAD51 nucleoprotein filaments (NPFs); format: binding, human
# Protocol: as §1, §2, §3, §4, §5
# RAD51 NPFs = experiment: cryo-electron micrographs, bundling of RAD51 NPFs on uncapped DNA; design: species or system human; conditions: 1:0.5 molar ratio of TR2 peptide; uncapped ss- and dsDNA; two independent repeats
# Excerpt: as §6
# Fig. 2 BRCA2 TR2 induces bundling of RAD51 nucleoprotein filaments. A Cryo-electron micrographs of RAD51 NPFs formed on ssDNA and dsDNA in the presence of 1:0.5 molar ratio of TR2 peptide. Extensive NPF aggregation into bundles of aligned filaments is clearly visible (examples marked with dashed white boxes). Two independent repeats. […]
sequence,measurement,setting,value
"DDQKNCKKRRALDFLSRLPLPPPVSPICTFVSPAAQKAFQPPRSCGTKY [TR2, BRCA2 TR2 peptide spanning amino acids 3260 to 3308]",effect of TR2 binding on RAD51 NPFs,[1],stabilisation of RAD51 NPFs and formation of filament aggregates
same,protection of RAD51 NPFs from disassembly by BRC repeat 4,[1],protection of RAD51 nucleoprotein filaments from disassembly by BRC repeat 4 of BRCA2
same,"reduction in TR2 binding, ssDNA versus dsDNA filaments","RAD51 D184A NPFs; EMSA, ssDNA compared with dsDNA",especially pronounced for filaments formed on ssDNA
same,TR2 binding relative to wild-type,"RAD51 D184A NPFs; ss- and dsDNA, 25 mM HEPES pH 7.5, 150 mM NaCl, 2 mM ATP, 5 mM CaCl2, TR2 5 min, room temperature, ssDNA performed twice, dsDNA once",reduction in TR2 binding proportional to the decrease in charge at RAD51’s acidic patch
same,TR2 binding by RAD51 NPFs on mSA-capped DNA,[2],competent to bind the TR2 peptide
same,TR2 binding to wild-type RAD51 NPFs (filament formation and mobility),"wild-type RAD51 NPFs; 25 mM HEPES pH 7.5, 150 mM NaCl, 2 mM DTT, 2 mM ATP, 5 mM CaCl2, RAD51 + DNA 15 min, then TR2 5 min, room temperature, 0.5% agarose, fluorescein-labelled 60 nt ss- or dsDNA, ssDNA performed twice, dsDNA once",enhancement of filament formation accompanied by formation of larger species of reduced electrophoretic mobility
same,bundling of TR2-bound filaments in the gel,"wild-type RAD51 NPFs; EMSA Fig. 1C, authors' response to reviewers",do not show bundling
same,bundling of RAD51 NPFs,RAD51 NPFs,extensive bundling of RAD51 NPFs with both ss- and dsDNA
